In patent US7511133B2, “Adenosine A3 receptor agonists” (King Pharmaceuticals Research and Development, Inc., priority 2003, dated 2009):
Like-named read-outs stand apart in the source and are kept apart here.

Tests used:
[1] = biological target: T1, human A2A adenosine receptors (Homo sapiens, UniProt P29274); experiment: Displacement of [^3H]CGS21680 binding, human A2A adenosine receptors in CHO cells (agonist radioligand)
T1 construct: expressed in transfected cells; host or cells: CHO cells

human A2A receptors = biological target: T2, human A2A receptors (Homo sapiens, UniProt P29274); experiment: [^3H] SCH58261 binding to human A2A receptors expressed in CHO cells (antagonist radioligand)
T2 construct: expressed in transfected cells; host or cells: CHO cells
Protocol: (§1) Binding assay methodology for the human data with antagonist radioligands. […] Arch. Pharmacol. 357: 1-9, (1998). The cells were grown adherently and maintained in Dulbecco's Modified Eagles Medium with nutrient mixture F12 (DMEM/F12) without nucleosides, containing 10% fetal calf serum, penicillin (100 U/ml), streptomycin (100 μg/ml), L-glutamine (2 mM) and Geneticin (G418, 0.2 mg/ml) at 37° C. in 5% CO2/95% air. Cells were split 2 or 3 times weekly at a ratio between 1:5 and 1:20. For membrane preparation the culture medium was removed and the cells were washed with PBS and scraped off T75 flasks in ice-cold hypotonic buffer (5 mM Tris HCl, 2 mM EDTA, pH 7.4). The cell suspension was homogenized with Polytron and the homogenate was spun for 10 min at 1,000×g. The supernatant was then centrifuged for 30 min at 100,000×g. The membrane pellet was resuspended in 50 mM Tris HCl buffer pH 7.4 (for A3 adenosine receptors: 50 mM Tris HCl, 10 mM MgCl2, 1 mM EDTA) and incubated with 3 UI/ml of Adenosine deaminase for 30 min at 37° C. Then the suspension was frozen at −80° C. HEK 293 cells transfected with the human recombinant A2B adenosine receptor were obtained from Receptor Biology, Inc. (Beltsville, Md., USA).
Binding of [^3H]-SCH 58261 to CHO cells transfected with the human recombinant A2A adenosine receptors (50 μg of protein/assay) was performed using 0.2 ml 50 mM Tris HCl buffer, 10 mM MgCl2 pH 7.4 and at least 6-8 different concentrations of antagonists studied for an incubation time of 30 min at 25° C.

human hA2B receptors = biological target: T3, human hA2B receptors (Homo sapiens, UniProt P29275); experiment: [^3H] DPCPX binding to human hA2B receptors expressed in HEK293 cells (antagonist radioligand)
T3 construct: host or cells: HEK 293 cells
T3 sequence (P29275 1-332): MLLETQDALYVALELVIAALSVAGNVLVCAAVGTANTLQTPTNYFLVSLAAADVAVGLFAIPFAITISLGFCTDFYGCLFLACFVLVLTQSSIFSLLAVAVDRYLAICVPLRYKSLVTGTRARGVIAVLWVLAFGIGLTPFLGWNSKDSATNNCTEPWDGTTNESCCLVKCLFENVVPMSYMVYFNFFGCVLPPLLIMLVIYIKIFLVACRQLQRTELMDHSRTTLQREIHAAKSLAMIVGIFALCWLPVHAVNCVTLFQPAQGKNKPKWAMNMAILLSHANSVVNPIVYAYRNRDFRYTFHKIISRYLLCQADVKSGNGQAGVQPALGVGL
Protocol: as §1
Competition experiments of [^3H]-DPCPX to HEK-293 cells transfected with the human recombinant A^2B adenosine receptor were performed for 60 min at 25° C. in 0.1 ml of 50 mM Tris HCl buffer, 10 mM MgCl2, 1 mM EDTA, 0.1 mM benzamidine pH 7.4, 2 IU/ml adenosine deaminase containing 34 nM [^3H]-DPCPX, diluted membranes (20 μg of protein/assay) and at least 6-8 different concentrations of selected compounds.

human A1 receptors = biological target: T4, human A1 receptors (Homo sapiens, UniProt P30542); experiment: [^3H] DPCPX binding to human A1 receptors expressed in CHO cells (antagonist radioligand)
T4 construct: expressed in transfected cells; host or cells: CHO cells
T4 sequence (P30542 1-326): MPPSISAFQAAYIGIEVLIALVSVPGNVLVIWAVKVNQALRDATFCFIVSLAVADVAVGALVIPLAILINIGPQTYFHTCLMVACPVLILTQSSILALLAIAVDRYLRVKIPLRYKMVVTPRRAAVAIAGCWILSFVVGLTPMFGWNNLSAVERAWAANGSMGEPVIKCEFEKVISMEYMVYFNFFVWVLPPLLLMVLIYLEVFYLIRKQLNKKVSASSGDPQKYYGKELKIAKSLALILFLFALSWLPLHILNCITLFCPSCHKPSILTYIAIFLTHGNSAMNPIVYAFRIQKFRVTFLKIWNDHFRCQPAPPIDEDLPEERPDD
Protocol: as §1, with “Pharmacol. 357: 1-9, (1998).” left out
Displacement experiments were performed for 120 min at 25° C. in 0.2 ml of 50 mM Tris HCl buffer pH 7.4 containing 1 nM [3H]-DPCPX, diluted membranes (50 μg of protein/assay) and at least 6-8 different concentrations of antagonists studied. Non-specific binding was determined in the presence of 10 μM of CHA and this was always ≦10% of the total binding.

[2] = biological target: T5, human A1 adenosine receptors (Homo sapiens, UniProt P30542); experiment: Displacement of [^3H]CHA binding, human A1 adenosine receptors in CHO cells (agonist radioligand)
T5 sequence (P30542 1-326): T4 sequence (P30542 1-326)

human A3 receptors = biological target: T6, human A3 receptors (Homo sapiens, UniProt P0DMS8); experiment: [^3H] MRE3008F20 binding to human A3 receptors expressed in CHO cells (antagonist radioligand)
T6 construct: expressed in transfected cells; host or cells: CHO cells
T6 sequence (P0DMS8 1-318): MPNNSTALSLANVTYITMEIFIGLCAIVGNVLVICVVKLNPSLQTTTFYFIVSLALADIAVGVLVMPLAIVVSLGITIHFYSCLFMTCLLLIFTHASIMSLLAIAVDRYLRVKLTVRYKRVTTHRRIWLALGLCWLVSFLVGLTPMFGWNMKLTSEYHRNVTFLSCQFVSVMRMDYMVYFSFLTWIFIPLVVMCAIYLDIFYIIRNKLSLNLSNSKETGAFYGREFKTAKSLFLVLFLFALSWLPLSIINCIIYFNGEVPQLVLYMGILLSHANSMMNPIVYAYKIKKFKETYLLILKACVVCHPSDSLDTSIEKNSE
Protocol: as §1
Binding of [^3H]-MRE 3008F20 to CHO cells transfected with the human recombinant A3 adenosine receptors was performed according to Varani et al., 2000. Competition experiments were carried out in duplicate in a final volume of […] in test tubes containing 1 nM [^3H]-MRE 3008F20, 50 mM Tris HCl buffer, 10 mM MgCl2, 1 mM EDTA pH 7.4 and 100 μl of diluted membranes (50 μg of protein/assay) and at least 8-10 different concentrations of examined antagonists. Incubation time was 120 min at 4° C., according to the results of previous time-course experiments.

[3] = biological target: T7, human A3 adenosine receptors (Homo sapiens, UniProt P0DMS8)
T7 sequence (P0DMS8 1-318): T6 sequence (P0DMS8 1-318)

[4] = human A2A, CHO cells, [^3H]CGS21680, read-out: Ki(A2A). Displacement of [^3H]CGS21680 binding to human A2A adenosine receptors exp. in CHO cells.
[5] = human A2A, CHO cells, antagonist radioligand, read-out: [^3H] SCH58261 binding to human A2A receptors expressed in CHO cells Ki
[6] = human A2B, HEK293 cells, antagonist radioligand, read-out: [^3H] DPCPX binding to human hA2B receptors expressed in HEK293 cells Ki
[7] = human A1, CHO cells, antagonist radioligand, read-out: [^3H] DPCPX binding to human A1 receptors expressed in CHO cells Ki
[8] = human A3, CHO cells, antagonist radioligand, read-out: [^3H] MRE3008F20 binding to human A3 receptors expressed in CHO cells Ki

T1 sequence (P29274 whole entry): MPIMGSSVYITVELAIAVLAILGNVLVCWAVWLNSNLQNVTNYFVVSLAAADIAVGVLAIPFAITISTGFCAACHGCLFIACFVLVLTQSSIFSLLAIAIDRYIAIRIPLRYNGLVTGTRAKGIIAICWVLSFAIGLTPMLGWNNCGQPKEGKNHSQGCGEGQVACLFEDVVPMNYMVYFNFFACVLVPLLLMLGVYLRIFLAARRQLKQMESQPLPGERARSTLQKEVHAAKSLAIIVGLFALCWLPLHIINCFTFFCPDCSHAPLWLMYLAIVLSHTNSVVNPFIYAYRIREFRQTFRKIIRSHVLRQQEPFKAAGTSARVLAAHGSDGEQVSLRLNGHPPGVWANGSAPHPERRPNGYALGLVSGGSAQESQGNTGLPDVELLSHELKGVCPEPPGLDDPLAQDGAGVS
T2 sequence (P29274 whole entry): as above

Row | Structure (SMILES) | Ki [1, 4] | Ki (human A2A receptors; [5]) | Ki (human hA2B receptors; [6]) | melting point | Ki (human A1 receptors; [7]) | Ki [2] | Ki (human A3 receptors; [8]) | Ki [3] | Ki [1] | Ki (human A1 receptors) | Ki (human A2A receptors) | Ki (human hA2B receptors) | Ki (human A3 receptors)
1 | CCNC(=O)[C@H]1O[C@@H](n2cnc3c(NC(=O)Nc4ccc(S(=O)(=O)NCc5ccccc5)cc4)ncnc32)[C@H](O)[C@@H]1O [Compound 86, 1-Deoxy-1-[6-[[[[4-[N-(benzyl)aminosulfonyl]phenyl]amino]-carbonyl]amino]-9H-purin-9-yl]-N-ethyl-β-D-ribofuranuronamide] | > 1000 nM | > 1000 nM | > 1000 nM | – | > 1000 nM | 300 nM | – | – | – | – | – | – | –
2 | CCNC(=O)[C@H]1O[C@@H](n2cnc3c(NC(=O)Nc4ccc(S(=O)(=O)Nc5ccc(OC)cc5)cc4)ncnc32)[C@H](O)[C@@H]1O [Compound 88, 1-Deoxy-1-[6-[[[[4-[N-(4-methoxyphenyl)aminosulfonyl]phenyl]-amino]carbo-nyl]amino]-9H-purin-9-yl]-N-ethyl-β-D-ribofuranuronamide] | > 1000 nM | > 1000 nM | > 1000 nM | – | > 1000 nM | 280 nM | – | – | – | – | – | – | –
3 | CCNC(=O)[C@H]1O[C@@H](n2cnc3c(NC(=O)Nc4ccc(S(=O)(=O)N(CCCl)CCCl)cc4)ncnc32)[C@H](O)[C@@H]1O [Compound 91, 1-Deoxy-1-[6-[[[[4-[N,N-bis(2-chloroethyl)aminosulfonyl]phenyl]-amino]carbonyl]amino]-9H-purin-9-yl]-N-ethyl-β-D-ribofuranuronamide] | – | – | – | – | – | 730 nM | – | 23 nM | > 1000 nM | > 1000 nM | > 1000 nM | > 1000 nM | 120 nM
4 | C=CCN(C)S(=O)(=O)c1ccc(NC(=O)Nc2ncnc3c2ncn3[C@@H]2O[C@H](C(=O)NCC)[C@@H](O)[C@H]2O)cc1 [Compound 96, 1-Deoxy-1-[6-[[[[4-[N-(allyl)-N-(methyl)amino-sulfonyl]phenyl]amino]carbonyl]amino]-9H-purin-9-yl]-N-ethyl-β-D-ribofuranuronamide] | > 1000 nM | > 1000 nM | > 1000 nM | 181 to 185 °C | – | – | 50 nM | 10 nM | – | – | – | – | –

Second part, led by results:

Row | Ki [1, 4] | Ki (human A2A receptors; [5]) | Ki (human hA2B receptors; [6]) | melting point | Ki (human A1 receptors; [7]) | Ki [2] | Ki (human A3 receptors; [8]) | Ki [3] | Structure (SMILES) | Ki [1] | Ki (human A1 receptors) | Ki (human A2A receptors) | Ki (human hA2B receptors) | Ki (human A3 receptors)
5 | > 1000 nM | > 1000 nM | > 1000 nM | 176 to 178 °C | – | – | – | – | CCNC(=O)[C@H]1O[C@@H](n2cnc3c(NC(=O)Nc4ccc(S(=O)(=O)N5CCCCC5)cc4)ncnc32)[C@H](O)[C@@H]1O [Compound 83, 1-Deoxy-1-[6-[[[[4-[(piperidin-1-yl)sulfonyl]phenyl]amino]carbonyl]amino]-9H-purin-9-yl]-N-ethyl-β-D-ribofuranuronamide] | – | – | – | – | –
6 | > 1000 nM | > 1000 nM | > 1000 nM | 204 to 205 °C | – | – | 100 nM | 22 nM | CCNC(=O)[C@H]1O[C@@H](n2cnc3c(NC(=O)Nc4ccc(S(=O)(=O)N5CCCC5)cc4)ncnc32)[C@H](O)[C@@H]1O [Compound 90, 1-Deoxy-1-[6-[[[[4-[(pyrrolidin-1-yl)sulfonyl]phenyl]amino]carbonyl]amino]-9H-purin-9-yl]-N-ethyl-β-D-ribofuranuronamide] | – | – | – | – | –
7 | > 1000 nM | > 1000 nM | > 1000 nM | 179 to 183 °C | > 1000 nM | 350 nM | – | – | CCNC(=O)[C@H]1O[C@@H](n2cnc3c(NC(=O)Nc4ccc(S(=O)(=O)NC5CCCCC5)cc4)ncnc32)[C@H](O)[C@@H]1O [Compound 94, 1-Deoxy-1-[6-[[[[4-[N-(cyclohexyl)aminosulfonyl]phenyl]-amino]carbonyl]amino]-9H-purin-9-yl]-N-ethyl-β-D-ribofuranuronamide] | – | – | – | – | –
8 | > 1000 nM | > 1000 nM | > 1000 nM | – | > 1000 nM | 415 nM | 140 nM | 24 nM | CCNC(=O)[C@H]1O[C@@H](n2cnc3c(NC(=O)Nc4ccc(S(=O)(=O)NC5CCCC5)cc4)ncnc32)[C@H](O)[C@@H]1O [Compound 95, 1-Deoxy-1-[6-[[[[4-[N-(cyclopentyl)aminosulfonyl]phenyl]-amino]carbonyl]amino]-9H-purin-9-yl]-N-ethyl-β-D-ribofuranuronamide] | – | – | – | – | –
